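Briefly, cells in 96-well plates were exposed to five compound concentrations for 48 h, and endpoints were estimated by linear interpolation. Here, GI50 denotes the concentration required for 50% inhibition of growth. The concentration for full growth arrest is given as TGI.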
Columns and labels:
Assay in all cases: DTP human tumour cell line panel, 48 h; in the data active means GI50 below about 0.43 µM; inactive means the rest
[1] = tested on: MCF7 breast
[2] = tested on: SF-539 CNS
[3] = tested on: U251 CNS
[4] = tested on: SNB-19 CNS
[5] = tested on: OVCAR-3 ovarian
[6] = tested on: UACC-62 melanoma
[7] = tested on: CCRF-CEM leukemia
[8] = tested on: PC-3 prostate
[9] = tested on: TK-10 renal
[10] = tested on: K-562 leukemia
[11] = tested on: KM12 colon
[12] = tested on: SK-MEL-28 melanoma
[13] = tested on: NCI-H460 lung
[14] = tested on: SNB-75 CNS
[15] = tested on: SK-MEL-5 melanoma
[16] = tested on: RPMI-8226 leukemia
[17] = tested on: A549 NSCLC
[18] = tested on: NCI-H23 lung
[19] = tested on: SW-620 colon
[20] = tested on: SF-295 CNS
[21] = tested on: NCI/ADR-RES ovarian
[22] = tested on: CAKI-1 renal
[23] = tested on: 786-0 renal
[24] = tested on: MDA-MB-435
[25] = tested on: UO-31 renal
[26] = tested on: IGROV1 ovarian
[27] = tested on: HCT-116 colon
[28] = tested on: ACHN renal
[29] = tested on: EKVX NSCLC
[30] = tested on: HCT-15 colon
[31] = tested on: HOP-62 NSCLC
[32] = tested on: NCI-H522 lung
[33] = tested on: OVCAR-8 ovarian
[34] = tested on: LOX IMVI melanoma
[35] = tested on: HCC-2998 colon
[36] = tested on: OVCAR-5 ovarian
[37] = tested on: M14 melanoma
[38] = tested on: SK-MEL-2 melanoma
[39] = tested on: NCI-H226 lung
[40] = tested on: HL-60(TB) leukemia
[41] = tested on: HS 578T breast
[42] = tested on: MDA-MB-231 breast
[43] = tested on: MALME-3M melanoma
[44] = tested on: HT29 colon
[45] = tested on: SF-268 CNS
[46] = tested on: SN12C renal
[47] = tested on: BT-549 breast
[48] = tested on: DU-145 prostate
[49] = tested on: SR leukemia
[50] = tested on: MOLT-4 leukemia
[51] = tested on: A498 renal
[52] = tested on: SK-OV-3 ovarian
[53] = tested on: UACC-257 melanoma
[54] = tested on: RXF 393 renal
[55] = tested on: COLO 205 colon
[56] = tested on: OVCAR-4 ovarian
[57] = tested on: T-47D breast

CC1(C)N=C(N)N=C(N)N1c1cccc(C#N)c1
> 100 µM: TGI [1] | TGI [2] | TGI [3] | TGI [4] | TGI [5] | TGI [6] | TGI [7] | TGI [8] | TGI [9] | TGI [10] | TGI [11] | TGI [12] | TGI [13] | TGI [14] | TGI [15] | TGI [16] | TGI [17] | TGI [18] | TGI [19] | TGI [21] | TGI [22] | TGI [23] | TGI [24] | TGI [25] | TGI [26] | TGI [27] | TGI [28] | TGI [29] | TGI [30] | TGI [31] | TGI [32] | TGI [33] | TGI [34] | TGI [35] | TGI [36] | TGI [37] | TGI [38] | TGI [39] | TGI [40] | TGI [41] | TGI [42] | TGI [43] | TGI [44] | TGI [45] | TGI [46] | TGI [47] | TGI [48] | TGI [49] | TGI [50] | TGI [51] | TGI [52] | TGI [53] | TGI [54] | TGI [55] | TGI [56] | TGI [57]
inactive: GI50 [1] 3.85 µM | GI50 [2] 3.74 µM | GI50 [3] 0.752 µM | GI50 [4] 49.4 µM | GI50 [5] 19 µM | GI50 [6] 3.84 µM | GI50 [7] 3.05 µM | GI50 [8] 2.66 µM | GI50 [9] 18.2 µM | GI50 [11] 7.37 µM | GI50 [12] 48.8 µM | GI50 [13] 2.8 µM | GI50 [14] 9.03 µM | GI50 [15] 8.1 µM | GI50 [16] 62.9 µM | GI50 [17] 0.932 µM | GI50 [18] 5.32 µM | GI50 [19] 0.567 µM | GI50 [20] 2.05 µM | GI50 [21] 75.9 µM | GI50 [22] 2.45 µM | GI50 [23] 0.578 µM | GI50 [24] 0.594 µM | GI50 [25] 5.9 µM | GI50 [26] 6.7 µM | GI50 [28] 4.09 µM | GI50 [29] 1.09 µM | GI50 [30] 5.65 µM | GI50 [31] 16.6 µM | GI50 [32] 4.68 µM | GI50 [33] 0.599 µM | GI50 [34] 0.605 µM | GI50 [35] 7.11 µM | GI50 [36] 2.74 µM | GI50 [37] 0.696 µM | GI50 [38] 8.99 µM | GI50 [39] 7.07 µM | GI50 [40] 3.46 µM | GI50 [41] 71.6 µM | GI50 [42] > 100 µM | GI50 [43] 16.7 µM | GI50 [44] 0.933 µM | GI50 [45] 0.692 µM | GI50 [46] 6.1 µM | GI50 [47] 27.9 µM | GI50 [48] 6.53 µM | GI50 [49] 4.36 µM | GI50 [50] 3.21 µM | GI50 [51] 20.9 µM | GI50 [52] 21.2 µM | GI50 [53] 11.7 µM | GI50 [54] 4.33 µM | GI50 [55] 31 µM | GI50 [56] > 100 µM | GI50 [57] > 100 µM
active: GI50 [10] 0.293 µM | GI50 [27] 0.364 µM
24.1 µM: TGI [20]

Reference: PubChem BioAssay (NCI)
